For data set [1], the target named is PDE4D (human recombinant) (Homo sapiens, UniProt Q08499). Description: PDE4D inhibition, IMAP Fluorescence Polarisation (FP) assay. The format is biochemical. The following applies: n = 2; accuracy ±about 0.5 log unit; read-out: PDE4D pIC50 (FP assay, mean value) (converted). The text has this: Human recombinant PDE4D (HSPDE4D3A) is disclosed in P. A. Baecker et al., “Isolation of a cDNA encoding a human rolipram-sensitive cyclic AMP phoshodiesterase (PDE IVD)”, Gene, 1994, 138, 253-256.
The ability of compounds to inhibit catalytic activity at PDE4B (human recombinant) or PDE4D (human recombinant) can optionally be determined by IMAP Fluorescence Polarisation (FP) assay (IMAP Explorer kit, available from Molecular Devices Corporation, Sunnydale, Calif., USA; Molecular Devices code: R8062) in a 384-well format.
The IMAP FP assay is able to measure PDE activity in an homogenous, non-radioactive assay format. […] Binding of Fl-AMP product to the beads (coated with the immobilised trivalent cations) slows the rotation of the bound Fl-AMP and leads to an increase in the fluorescence polarisation ratio of parallel to perpendicular light. […]
Test compounds (small volume, e.g. ca. 0.5 to 1 microliters (ul), preferably ca. 0.5 ul, of solution in DMSO) are preincubated at ambient temperature (room temperature, e.g. 19-23° C.) in black 384-well microtitre plates (supplier: NUNC, code 262260) with PDE enzyme in 10 mM Tris-HCl buffer pH 7.2, 10 mM MgCl2, 0.1% (w/v) bovine serum albumin, and 0.05% NaN3 for 10-30 minutes. […] The Fluorescence Polarisation (FP) ratio of parallel to perpendicular light is measured using an Analyst™ plate reader (from Molecular Devices Corporation). […]
On the technique in general: In fluorescence polarisation assays a small probe gives low polarisation when free and higher when bound to something large.

Data set [2] in a line: Systemic exposure after oral administration to rat(s). The following applies: about 1 mg/kg oral, free base, 10% DMSO and 90% PEG200/water (70:30), preliminary tests. In kind it is in vivo. The text has this: Although the compound of formula (I) or salt thereof may be administered orally, oral administration is not presently thought to be a preferred route of administration.

Data set [3] in a line: Aqueous solubility preliminary screen. The format is physicochemical. Particulars: pH 7.4 phosphate buffered saline with about 5% DMSO, aqueous with cosolvent or surfactant or cyclodextrin, free base, pH 7.4 PBS with about 5% DMSO, about room temperature. As for the experimental part:
Aqueous solubility: A preliminary screen aims to estimate roughly the aqueous solubility of compounds by (as an approximate summary): (i) creating a ca. 10 mM solution of the compound in DMSO, (ii) diluting a portion of this DMSO solution by mixing about 19 parts by volume of pH 7.4 aqueous phosphate buffered saline (PBS) buffer with 1 part by volume of the ca. 10 mM DMSO solution, (iii) “filtering” the mixture with the aid of centrifugation, and then (iv) measuring the concentration of the dissolved compound in the “filtrate”.

In data set [4] the test system is TNF-α (TNF-alpha) production in Human PBMC (Peripheral Blood Mononuclear Cell). Description: Inhibition of TNF-α production in Human PBMC assay. The format is cell-based. Particulars: LPS-stimulated, n=9, read-out: Inhibition of TNF-α production in PBMCs pIC50 (converted). As to the method:
Test compounds are prepared as a ca. 10 mM stock solution in DMSO and a dilution series prepared in DMSO with 8 successive 3-fold dilutions, either directly from the 10 mM stock solution or from a more dilute solution in DMSO. The compound is added to assay plates using a Biomek Fx liquid handling robot.
PBMC cells (peripheral blood mononuclear cells) are prepared from heparinised human blood from normal volunteers by centrifugation on histopaque at ca. 1000 g for ca. 30 minutes. The cells are collected from the interface, washed by centrifugation (ca. 1300 g, ca. 10 minutes) and resuspended in assay buffer (RPMI 1640 containing 10% foetal calf serum, 1% L-glutamine and 1% penicillin/streptomycin) at 1×10^6 cells/ml. Ca. 50 μl (ca. 50 ul) cells are added to microtitre wells containing ca. 0.5 or ca/1.0 μl (ul) of an appropriately diluted compound solution. Ca. […] The supernatant is removed and the concentrations of TNF are determined by electrochemiluminescence assay using the IGEN technology or by ELISA (see below).
Ca. […] 50 μl (ul) of streptavidin/biotinylated anti-TNF-α antibody mix, ca. 25 μl ruthenium tagged anti-TNF-α monoclonal and ca. 100 μl PBS containing 0.1% bovine serum albumin are added to each well and the plates are sealed and shaken for ca. 2 hours before being read on an IGEN instrument. […]

The structures appear in SMILES notation.

Sequence of PDE4D (human recombinant) (Q08499 1-673 isoform Q08499-2): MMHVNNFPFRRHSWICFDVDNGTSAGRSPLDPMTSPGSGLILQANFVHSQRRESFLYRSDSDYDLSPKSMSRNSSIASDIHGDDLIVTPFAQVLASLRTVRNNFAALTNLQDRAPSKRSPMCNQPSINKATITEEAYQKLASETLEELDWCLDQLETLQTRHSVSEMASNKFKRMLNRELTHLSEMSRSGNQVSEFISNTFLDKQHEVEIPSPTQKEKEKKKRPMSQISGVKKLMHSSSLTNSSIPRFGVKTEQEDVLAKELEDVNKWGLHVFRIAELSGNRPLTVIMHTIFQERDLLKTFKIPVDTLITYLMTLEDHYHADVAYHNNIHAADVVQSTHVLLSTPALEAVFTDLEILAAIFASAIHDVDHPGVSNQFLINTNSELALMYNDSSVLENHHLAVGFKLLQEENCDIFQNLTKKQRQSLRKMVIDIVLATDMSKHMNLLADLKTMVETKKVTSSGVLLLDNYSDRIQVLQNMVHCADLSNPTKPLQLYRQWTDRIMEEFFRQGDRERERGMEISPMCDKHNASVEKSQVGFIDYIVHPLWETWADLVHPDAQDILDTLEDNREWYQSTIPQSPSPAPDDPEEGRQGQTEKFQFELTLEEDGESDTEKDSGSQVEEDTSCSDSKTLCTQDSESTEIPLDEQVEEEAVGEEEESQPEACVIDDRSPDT

One may read the solubility (kinetic) as solubility judged after dilution from a stock solution rather than from solid. As to `CCn1ncc2c(NC3CCN(C(N)=O)CC3)c(C(=O)NCc3ccc(C)c(C)c3)cnc21` [compound of formula (I), 4-{[1-(aminocarbonyl)-4-piperidinyl]amino}-N-[(3,4-dimethylphenyl)methyl]-1-ethyl-1H-pyrazolo[3,4-b]pyridine-5-carboxamide], the figures for the IC50 in data set [1] and in data set [4] were 0.55 nM and 1.82 nM, respectively. For the same compound, the “systemic exposure after oral administration” value in data set [2] is “low systemic exposure”. Moreover, the kinetic solubility in data set [3] is about 60 µg/mL.
